Values joined by “and” are separate entries in the source; they are usually repeats but may differ in a detail not shown here. Identical values can stand only once. Like-named read-outs stand apart in the source and are kept apart here.
Experiments:
Experiment in all cases: Chemosensitivity, 96 h continuous exposure, MTT assay
Format in all cases: cell-based, human
[1] = test system: DLD-1
Excerpt: (§1) All cell lines were purchased from and maintained as monolayers as described by the American Type Culture Collection with the exception of the p53^+/+ and p53^−/− isogenic clones of HCT116 human colorectal adenocarcinoma cells which were a kind gift from Professor Bert Vogelstein[54]. GBM1 cells were established from a primary GBM tumour by Heiko Wurdak and colleagues[32],[33]. Non-cancerous adult brain neural progenitor (NP1) cells were derived from a patient undergoing surgery to treat epilepsy[32],[33]. Cell culture and growth media for NP1 and GBM1 cells were as described[32],[33]. The response of cells following a continuous 96-h exposure to test compounds and platinates was determined using the MTT assay. Potency was recorded as the IC50 and the selectivity index (SI) was defined as the ratio of IC50 values for non-cancer to cancer cell lines with values >1 representing selectivity for cancer cells as opposed to non-cancer cells.
(§2) All cell lines used were maintained at low passage in antibiotic-free media. HT29, DLD-1, HCT116 p53^+/+ and HCT116 p53^−/− are all colorectal adenocarcinoma cell lines derived from different individuals and harbour different combinations of oncogenic lesions (except for the HCT116 isogenic cancer cell clones that are genetically identical except for p53 status). PSN-1, BxPC-3 and MiaPaCa2 are pancreatic carcinoma cell lines and A549 and H460 are lung carcinoma cell lines. HT29, DLD-1, PSN-1, BxPC-3, A549 and H460 cell lines were cultured in RPMI-1640 growth media (Sigma) containing 2 mM L-glutamine, 1 mM sodium pyruvate and 10% foetal bovine serum (FBS). HCT116 (p53^+/+ and p53^−/−) and MiaPaCa2 cell lines were cultured in Dulbecco’s Modified Eagle’s Medium (Sigma), 2 mM L-glutamine and 10% FBS. The ARPE-19 retinal epithelial non-cancer cell line was cultured in DMEM/F12 media (Gibco), 2 mM L-glutamine, 1 mM sodium pyruvate and 10% FBS. The MCF10A non-cancerous human breast epithelial cell line was cultured in Minimal Essential Media Eagle (Sigma), 2 mM L-glutamine, 1 mM sodium pyruvate, 10% FBS and 1x non-essential amino acids (NEAA). NP1 and GBM1 cells were cultured on plasticware coated with poly-L-ornithine (5 µg/ml) and laminin (2.4 µg/ml)[32],[33]. NP1 cells were grown in DMEM/F12 media (Gibco) supplemented with 5% FBS, 20 ng/ml hFGF, 20 ng/ml rhEGF, 0.5x B-27 supplement (Gibco), 0.5x N-2 supplement (Gibco) and 1x GLUTAMAX (Gibco). GBM1 cells were cultured in Neurobasal media (Gibco) supplemented with 40 ng/ml hFGF, 40 ng/ml rhEGF, 0.5x B-27 supplement (Gibco) and 0.5x N-2 supplement (Gibco).
(§3) [L2(Metal)3]^6+ and all the other self-assembling complexes were freshly formed by adding DMSO to individual components and mixing together by pipetting. These were then further diluted in cell culture media such that the final DMSO concentration that cells were exposed to was 0.2% (vehicle control). Cisplatin, oxaliplatin and carboplatin were dissolved in phosphate buffered saline. Cell lines were seeded into 96 well plates at 2 × 10^3 cells per well and incubated overnight at 37 °C. GBM1 cancer stem-like cells were seeded at 3 × 10^3 cells per well and NP1 neural progenitors were seeded at 1.5 × 10^3 cells per well. The following day, media was removed and replaced with fresh media containing test compounds at a range of concentrations. Cells were incubated with test compounds for a further 96 h after which the media was removed and replaced with fresh media (200 μl/well). MTT was added (20 μl at 5 mg/ml) and cells were incubated for a further 4 h. Media and MTT were removed and formazan crystals were dissolved in 150 μl of DMSO and the absorbance of the resulting solution determined at 540 nm. Dose response curves were constructed, and the concentration required to reduce cell growth by 50% (IC50) determined.

[2] = test system: HCT116 p53+/+; details: for Selectivity index (ARPE19): IC50 ARPE-19 / IC50 HCT116 p53+/+
Excerpt: as §1, §2, §3

[3] = test system: HT-29
Excerpt: as §1, §2, §3

[4] = test system: PSN1
Excerpt: as §1, §2, §3

[5] = test system: A549
Excerpt: as §1, §2, §3

[6] = test system: HCT116 p53-/-; details: for Selectivity index (ARPE19): IC50 ARPE-19 / IC50 HCT116 p53-/-
Excerpt: as §1, §2, §3

[7] = test system: BxPC3
Excerpt: as §1, §2, §3

[8] = HCT116 p53+/+, read-out: Mean IC50 values
[9] = HCT116 p53-/-, read-out: Mean IC50 values

SMILES: O=P([O-])([O-])Oc1ccccc1.[Cu+2].[Cu+2].[Cu+2].c1ccc(-c2csc(NCCN(CCNc3nc(-c4ccccn4)cs3)CCNc3nc(-c4ccccn4)cs3)n2)nc1.c1ccc(-c2csc(NCCN(CCNc3nc(-c4ccccn4)cs3)CCNc3nc(-c4ccccn4)cs3)n2)nc1 [[L2Cu3(O3POPh)]4+]
- IC50 ([1]; DLD-1, mean of replicates, read-out: Mean IC50): 392 nM
- IC50 ([1]; DLD-1, read-out: Mean IC50 values): 392 nM
- Selectivity index (ARPE19) ([1]; IC50 ARPE-19 / IC50 DLD-1): 293.98
- Selectivity index (MCF10A) ([1]; IC50 MCF10A / IC50 DLD-1): 131.32
- Relative potency (+ anion to no anion), Ratio + anion:no anion ([1]; ratio of IC50, DLD-1): 2.97
- Selectivity indices relative to ARPE-19, Ratio + anion:no anion ([1]; ratio of SI (ARPE-19), DLD-1): 0.737
- Selectivity indices relative to MCF10A, Ratio + anion:no anion ([1]; ratio of SI (MCF 10A), DLD-1): 0.359
- IC50 ([2]; HCT116 p53+/+, mean of replicates, read-out: Mean IC50): 167 nM
- IC50 [2, 8]: 167 nM
- IC50 ([2]; HCT116 p53+/+, single replicate, read-out: IC50 values for each replicate): 170 nM and 167 nM and 189 nM and 142 nM
- Selectivity index (ARPE19) [2]: 690.06
- Selectivity index (MCF10A) ([2]; IC50 MCF10A / IC50 HCT116 p53+/+): 308.25
- Relative potency (+ anion to no anion), Ratio + anion:no anion ([2]; ratio of IC50, HCT116 p53+/+): 0.34
- Selectivity indices relative to ARPE-19, Ratio + anion:no anion ([2]; ratio of SI (ARPE-19), HCT116 p53+/+): 6.503
- Selectivity indices relative to MCF10A, Ratio + anion:no anion ([2]; ratio of SI (MCF 10A), HCT116 p53+/+): 3.168
- IC50 ([3]; HT29, mean of replicates, read-out: Mean IC50): 695 nM
- IC50 ([3]; HT29, read-out: Mean IC50 values): 695 nM
- IC50 ([3]; HT-29, single replicate, read-out: IC50 values for each replicate): 687 nM and 844 nM and 642 nM and 195 nM and 1590 nM and 213 nM
- Selectivity index (ARPE19) ([3]; IC50 ARPE-19 / IC50 HT29): 165.81
- Selectivity index (MCF10A) ([3]; IC50 MCF10A / IC50 HT29): 74.07
- Relative potency (+ anion to no anion), Ratio + anion:no anion ([3]; ratio of IC50, HT29): 3.25
- Selectivity indices relative to ARPE-19, Ratio + anion:no anion ([3]; ratio of SI (ARPE-19), HT29): 0.674
- Selectivity indices relative to MCF10A, Ratio + anion:no anion ([3]; ratio of SI (MCF 10A), HT29): 0.328
- Selectivity index (ARPE19) ([4]; IC50 ARPE-19 / IC50 PSN1): 536.00
- Selectivity index (MCF10A) ([4]; IC50 MCF10A / IC50 PSN1): 239.43
- IC50 ([4]; PSN1, mean of replicates, read-out: Mean IC50): 215 nM
- IC50 ([4]; PSN1, read-out: Mean IC50 values): 215 nM
- IC50 ([4]; PSN1, single replicate, read-out: IC50 values for each replicate): 195 nM and 219 nM and 229 nM
- Relative potency (+ anion to no anion), Ratio + anion:no anion ([4]; ratio of IC50, PSN1): 0.0333
- Selectivity indices relative to ARPE-19, Ratio + anion:no anion ([4]; ratio of SI (ARPE-19), PSN1): 65.686
- Selectivity indices relative to MCF10A, Ratio + anion:no anion ([4]; ratio of SI (MCF 10A), PSN1): 32.009
- IC50 ([5]; A549, mean of replicates, read-out: Mean IC50): 1710 nM
- IC50 ([5]; A549, read-out: Mean IC50 values): 1710 nM
- IC50 ([5]; A549, single replicate, read-out: IC50 values for each replicate): 1800 nM and 1600 nM and 1720 nM
- Selectivity index (ARPE19) ([5]; IC50 ARPE-19 / IC50 A549): 67.55
- Selectivity index (MCF10A) ([5]; IC50 MCF10A / IC50 A549): 30.17
- Relative potency (+ anion to no anion), Ratio + anion:no anion ([5]; ratio of IC50, A549): 7.32
- Selectivity indices relative to ARPE-19, Ratio + anion:no anion ([5]; ratio of SI (ARPE-19), A549): 0.299
- Selectivity indices relative to MCF10A, Ratio + anion:no anion ([5]; ratio of SI (MCF 10A), A549): 0.146
- IC50 ([6]; HCT116 p53-/-, mean of replicates, read-out: Mean IC50): 82 nM
- IC50 [6, 9]: 82 nM
- IC50 ([6]; HCT116 p53-/-, single replicate, read-out: IC50 values for each replicate): 80 nM and 86 nM
- Selectivity index (ARPE19) [6]: 1405.37
- Selectivity index (MCF10A) ([6]; IC50 MCF10A / IC50 HCT116 p53-/-): 627.77
- Relative potency (+ anion to no anion), Ratio + anion:no anion ([6]; ratio of IC50, HCT116 p53-/-): 0.60
- Selectivity indices relative to ARPE-19, Ratio + anion:no anion ([6]; ratio of SI (ARPE-19), HCT116 p53-/-): 3.658
- Selectivity indices relative to MCF10A, Ratio + anion:no anion ([6]; ratio of SI (MCF 10A), HCT116 p53-/-): 1.782
- IC50 ([7]; BXPC3, mean of replicates, read-out: Mean IC50): 51900 nM
- IC50 ([7]; BXPC3, read-out: Mean IC50 values): 39500 nM
- IC50 ([7]; BXPC3, single replicate, read-out: IC50 values for each replicate): 59300 nM and 58600 nM and 40800 nM and 47600 nM and 53000 nM
- Selectivity index (ARPE19) ([7]; IC50 ARPE-19 / IC50 BXPC3): 2.92
- Selectivity index (MCF10A) ([7]; IC50 MCF10A / IC50 BXPC3): 1.30
- Relative potency (+ anion to no anion), Ratio + anion:no anion ([7]; ratio of IC50, BXPC3): 134.82
- Selectivity indices relative to ARPE-19, Ratio + anion:no anion ([7]; ratio of SI (ARPE-19), BXPC3): 0.016
- Selectivity indices relative to MCF10A, Ratio + anion:no anion ([7]; ratio of SI (MCF 10A), BXPC3): 0.008

SMILES: [Mn+2].[Mn+2].[Mn+2].c1ccc(-c2csc(NCCN(CCNc3nc(-c4ccccn4)cs3)CCNc3nc(-c4ccccn4)cs3)n2)nc1.c1ccc(-c2csc(NCCN(CCNc3nc(-c4ccccn4)cs3)CCNc3nc(-c4ccccn4)cs3)n2)nc1 [[L2Mn3]6+]
- IC50 ([2]; HCT116 p53+/+, 96 h, MTT, individual run, read-out: IC50 values for each replicate): 1780 nM and 529 nM and 1400 nM and 1450 nM and 1410 nM
- IC50 ([2]; HCT116 p53+/+, 96 h, MTT, mean of at least 3 independent experiments, read-out: Mean IC50): 1320 nM
- IC50 [2, 8]: 1320 nM
- Selectivity index (ARPE19) [2]: 2.17
- preferential selectivity towards cancer cells ([2]; cancer cells vs non-cancer cells (Fig. 5f)): ~ 2 fold
- SI (ARPE19) ([2]; mean IC50 ARPE-19 / mean IC50 HCT116 p53+/+): 2.173
- IC50 ([6]; HCT116 p53-/-, 96 h, MTT, individual run, read-out: IC50 values for each replicate): 1560 nM and 785 nM and 1350 nM and 1280 nM
- IC50 ([6]; HCT116 p53-/-, 96 h, MTT, mean of at least 3 independent experiments, read-out: Mean IC50): 1250 nM
- IC50 [6, 9]: 1250 nM
- Selectivity index (ARPE19) [6]: 2.30
- SI (ARPE19) ([6]; mean IC50 ARPE-19 / mean IC50 HCT116 p53-/-): 2.295

Reference: publication PMC8222254, “Self-assembly of an anion receptor with metal-dependent kinase inhibition and potent in vitro anti-cancer properties” (Nature Communications, 2021)
